Like-named read-outs stand apart in the source and are kept apart here. Where a SMILES comes first, the peptide text is derived from it. Bridges are numbered along the chain shown (N, C = ends).

In experiment [1] the target is T1, human IgG Fc (Homo sapiens, UniProt P01857).
T1 construct: Biotin-SP-ChromPure Human IgG, Fc fragment; purchased Jackson Immunoresearch Labs Inc. 009060008
Nature of the experiment: SPR. In kind it is binding.

Experiment [2] deals with T1, human IgG Fc. In words: Phage competition ELISA (synthetic DCP vs its own phage). It is filed as binding. The settings on record: Table S12; synthetic DCP competing with its own phage for biotinylated human IgG Fc on neutravidin plate; absorbance 450 nm; averaged from at least three independent runs.
Another experiment deals with Ly6E-rat IgG Fc (UniProt P20761+Q16553). Nature of the experiment: SPR. Set-up: species or system human. The following applies: Table S17, first KD value, at least three independent runs, estimated values due to possible non-specific binding, read-out: KD against rat Fc-Ly6E. How it is done: (§1) SPR measurements were carried out on a Biacore S200 instrument (GE Healthcare) with PBS-T (PBS with 0.05% Tween 20, pH 7.4) as the assay buffer as described previously. For kinetic measurements, biotinylated protein was captured on three separate sensor channels of a Series S SA Sensor chip (GE Healthcare). The chip was then blocked with 0.1 mg/mL free biotin. A concentration series of the DCP were injected to the chip. Data were double-referenced by subtracting the signal from a control sensor channel (coated with biotin only) and the signal from a buffer injection. Binding data were fitted using the manufacturer’s software (1:1 or two state binding model for single-cycle kinetics or steady-state model for multi-cycle kinetics).
Ly6E-rat IgG Fc, sequence (Q16553+P20761 fused): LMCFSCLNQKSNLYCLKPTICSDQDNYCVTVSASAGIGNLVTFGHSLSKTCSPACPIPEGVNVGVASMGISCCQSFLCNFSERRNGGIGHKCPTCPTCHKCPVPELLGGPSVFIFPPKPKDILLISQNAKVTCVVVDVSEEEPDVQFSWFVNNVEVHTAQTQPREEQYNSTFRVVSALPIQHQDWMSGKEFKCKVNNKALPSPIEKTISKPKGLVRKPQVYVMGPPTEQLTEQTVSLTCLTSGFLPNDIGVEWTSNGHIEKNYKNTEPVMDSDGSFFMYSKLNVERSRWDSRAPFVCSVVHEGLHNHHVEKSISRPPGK

For a further experiment, the target named is T2, PDGF bb (Homo sapiens, UniProt P01127).
T2 construct: purchased R&D Systems BT220-010/CF
T2 sequence (P01127 82-190 limits assumed): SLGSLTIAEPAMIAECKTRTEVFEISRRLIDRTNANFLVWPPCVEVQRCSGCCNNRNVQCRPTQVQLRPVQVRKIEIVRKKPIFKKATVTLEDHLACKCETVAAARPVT
Nature of the experiment: SPR. The following applies: Table S16; SPR against PDGF bb; averaged from at least three independent runs; estimated KD values due to possible non-specific binding. How it is done: as §1

The next experiment has as its target T3, human serum albumin (Homo sapiens, UniProt P02768).
T3 construct: purchased Rockland Immunochemicals, Inc. 009–0633
In words: Phage competition ELISA with phage displaying Hs-CHR-3. In kind it is binding. The settings on record: Fig 4H. How it is done: To analyze the competitive binding to the target protein for the synthetic DCP and its phage counterpart displaying the same DCP, 384-well plates were coated with 2 μg/mL of neutravidin in PBS overnight at 4°C. The plates were blocked with PBS containing 0.5% BSA and incubated with biotinylated human IgG Fc or serum albumin for 20 min at room temperature. Serial diluted synthetic DCP was pre-incubated with phage for 30 min at room temperature then the mixture was added to the 384 well plates for 30 min at room temperature. The plates were washed and incubate with anti-M13 antibody (1:10,000, HRP conjugated, Creative Diagnostics, cat# CAB-655M) for 30 min at room temperature, followed by washing, development and quenching (1 M H3PO4). The absorbance at 450 nm was recorded to calculate the IC50 values.
To further map the binding epitopes of the Ig-DCPs on human IgG Fc, we developed a protein A-human IgG Fc competition ELISA. […] The findings imply Hs-CHR-1 and -3 bind to a similar epitope on human serum albumin, which partially overlap with the SA21 binding site (Fig 4I).
For orientation: ELISA stands for enzyme-linked immunosorbent assay.

Another experiment has as its target T4, human VEGF-A (Homo sapiens, UniProt P15692).
T4 construct: biotin-VEGF-A (8–109, Genentech)
In words: SPR. It is filed as binding.

T4 sequence (P15692 214-315): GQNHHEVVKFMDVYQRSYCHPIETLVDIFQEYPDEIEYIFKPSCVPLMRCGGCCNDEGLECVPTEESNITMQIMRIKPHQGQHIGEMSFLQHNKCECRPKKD
T3 sequence (P02768 25-609): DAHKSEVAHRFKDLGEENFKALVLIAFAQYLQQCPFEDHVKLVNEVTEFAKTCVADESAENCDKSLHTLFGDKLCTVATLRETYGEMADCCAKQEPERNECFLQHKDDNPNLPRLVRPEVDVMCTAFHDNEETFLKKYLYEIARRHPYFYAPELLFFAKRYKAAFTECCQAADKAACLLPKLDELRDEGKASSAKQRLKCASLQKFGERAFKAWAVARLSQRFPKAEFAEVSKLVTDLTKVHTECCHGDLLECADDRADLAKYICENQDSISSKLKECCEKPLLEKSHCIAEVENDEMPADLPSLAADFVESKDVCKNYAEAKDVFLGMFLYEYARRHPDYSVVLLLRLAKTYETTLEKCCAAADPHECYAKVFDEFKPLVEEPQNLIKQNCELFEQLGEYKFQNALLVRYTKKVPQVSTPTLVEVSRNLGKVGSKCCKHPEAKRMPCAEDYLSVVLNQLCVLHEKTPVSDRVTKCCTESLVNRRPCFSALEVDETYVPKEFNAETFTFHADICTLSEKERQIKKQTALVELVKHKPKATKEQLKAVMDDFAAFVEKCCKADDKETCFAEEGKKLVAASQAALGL

Turning to `CC[C@H](C)[C@@H]1NC(=O)[C@H](C)NC(=O)[C@H](CO)NC(=O)[C@@H]2CSSC[C@@H]3NC(=O)[C@H](Cc4ccc(O)cc4)NC(=O)CNC(=O)[C@H](Cc4ccccc4)NC(=O)[C@H](CCC(N)=O)NC(=O)[C@H](CO)NC(=O)[C@H](CSSC[C@H](NC(=O)[C@H](CCC(=O)O)NC(=O)CNC(=O)[C@@H](N)C(C)C)C(=O)N[C@@H](C(C)C)C(=O)N[C@@H](CCCNC(=N)N)C(=O)NCC(=O)N[C@@H](CCCNC(=N)N)C(=O)N2)NC(=O)[C@H](CSSC[C@@H](C(=O)NCC(=O)O)NC(=O)[C@H](Cc2ccc(O)cc2)NC(=O)[C@H](CCCCN)NC(=O)[C@@H]2CCCN2C(=O)CNC(=O)[C@H](CCCCN)NC(=O)CNC3=O)NC(=O)[C@H](CO)NC1=O` [Ig-AMP-2] (H-VGECVRGRCSAISCCSQFGYCGKGPKYCG-OH; disulfide 4-15, 9-21, 14-28), the KD result on human IgG Fc [1] (Table S12, SPR Biacore S200, PBS-T pH 7.4, biotinylated protein on SA chip, averaged from at least three independent runs, N.A. = no detectable binding, * estimated value due to possible non-specific binding) is “aggregation”.
As usually defined, the IC50 is the concentration at which inhibition is half-maximal. High values mean a need for much substance, low ones inhibition by little substance. In general, Kd refers to the constant that tells how readily two partners part at equilibrium. For the compound `CSCC[C@@H]1NC(=O)[C@H](Cc2ccc(O)cc2)NC(=O)[C@H](Cc2c[nH]c3ccccc23)NC(=O)[C@H](Cc2ccc(O)cc2)NC(=O)CNC(=O)[C@@H](NC(=O)CN)CSSC[C@@H]2NC(=O)CNC(=O)[C@H](C)NC(=O)[C@H](CC(C)C)NC(=O)[C@@H]3CSSC[C@@H](C(=O)NCC(=O)O)NC(=O)[C@H](CCC(=O)O)NC(=O)[C@@H]4CCCN4C(=O)[C@H](CCCCN)NC(=O)[C@@H]4CCCN4C(=O)[C@H](CCCNC(=N)N)NC(=O)[C@H](CSSC[C@H](NC(=O)[C@H](Cc4ccccc4)NC(=O)[C@H](Cc4c[nH]c5ccccc45)NC(=O)[C@H](CCC(N)=O)NC1=O)C(=O)N[C@@H](CCCCN)C(=O)N[C@@H](CCC(N)=O)C(=O)N[C@@H](CC(=O)O)C(=O)N[C@@H](CO)C(=O)N[C@@H](CC(=O)O)C(=O)N3)NC(=O)[C@H](C(C)C)NC2=O` [Ig-EET-4], the IC50 on human IgG Fc [2] was 823 nM. Also, the Kd at human IgG Fc [1] (Table S12, SPR Biacore S200, PBS-T pH 7.4, biotinylated protein on SA chip, averaged from at least three independent runs, N.A. = no detectable binding, * estimated value due to possible non-specific binding, read-out: KD) was 948 nM.
Turning to `CC[C@H](C)[C@@H]1NC(=O)[C@H](C)NC(=O)[C@@H](NC(=O)CN)CSSC[C@@H]2NC(=O)CNC(=O)[C@H](C)NC(=O)[C@H](CC(C)C)NC(=O)[C@@H]3CSSC[C@@H](C(=O)NCC(=O)O)NC(=O)[C@H](Cc4ccccc4)NC(=O)CNC(=O)[C@H](CC(N)=O)NC(=O)[C@@H]4CCCN4C(=O)CNC(=O)[C@H](CSSC[C@H](NC(=O)[C@H](CCC(N)=O)NC(=O)[C@H](Cc4ccccc4)NC(=O)[C@H](CCSC)NC(=O)[C@H](Cc4c[nH]c5ccccc45)NC(=O)CNC(=O)[C@H](CCSC)NC(=O)[C@H](Cc4c[nH]cn4)NC(=O)[C@H](Cc4ccc(O)cc4)NC1=O)C(=O)N[C@@H](CCCCN)C(=O)N[C@@H](CCC(N)=O)C(=O)N[C@@H](CC(=O)O)C(=O)N[C@@H](CO)C(=O)N[C@@H](CC(=O)O)C(=O)N3)NC(=O)[C@H](C(C)C)NC2=O` [L-EET-7], the Kd on Ly6E-rat IgG Fc is 22 nM.
As for `CC[C@H](C)[C@@H]1NC(=O)[C@H](Cc2ccccc2)NC(=O)[C@@H]2CCCN2C(=O)[C@H](CC(N)=O)NC(=O)[C@H](CC(=O)O)NC(=O)[C@H](CC(=O)O)NC(=O)[C@H](Cc2ccccc2)NC(=O)[C@@H](NC(=O)CN)CSSC[C@@H]2NC(=O)CNC(=O)[C@H](C)NC(=O)[C@H](CC(C)C)NC(=O)[C@@H]3CSSC[C@@H](C(=O)NCC(=O)O)NC(=O)[C@H](Cc4c[nH]c5ccccc45)NC(=O)[C@H]([C@@H](C)O)NC(=O)[C@H](CC(=O)O)NC(=O)[C@H](Cc4ccc(O)cc4)NC(=O)[C@H](Cc4c[nH]c5ccccc45)NC(=O)[C@H](CSSC[C@H](NC(=O)[C@H](C)NC1=O)C(=O)N[C@@H](CCCCN)C(=O)N[C@@H](CCC(N)=O)C(=O)N[C@@H](CC(=O)O)C(=O)N[C@@H](CO)C(=O)N[C@@H](CC(=O)O)C(=O)N3)NC(=O)[C@H](C(C)C)NC2=O` [P-EET-6] (H-GCFDDNPFIACKQDSDCLAGCVCWYDTWCG-OH; disulfide 2-21, 11-23, 17-29), the Kd on PDGF bb was more than 6700 nM.
In the case of `CC[C@H](C)[C@H](NC(=O)[C@H](CC(C)C)NC(=O)[C@@H](N)CCCNC(=N)N)C(=O)N[C@@H](CCC(=O)O)C(=O)N[C@@H](CC(=O)O)C(=O)N[C@H](C(=O)N[C@H]1CSSC[C@@H](C(=O)N[C@@H](CC(C)C)C(=O)N[C@@H](Cc2c[nH]c3ccccc23)C(=O)N[C@@H](CCC(=O)O)C(=O)N[C@@H](CC(=O)O)C(=O)N[C@@H](CC(=O)O)C(=O)O)NC(=O)CNC(=O)[C@H](Cc2c[nH]c3ccccc23)NC(=O)[C@H](CCCNC(=N)N)NC(=O)[C@@H]2CCCN2C(=O)[C@H](CC(C)C)NC1=O)[C@@H](C)CC` [SA21] (H-RLIEDICLPRWGCLWEDD-OH; disulfide 7-13 (inferred); N-terminus and C-terminus assumed), on human serum albumin, the “inhibition of interaction between biotinylated human serum albumin and phage displaying Hs-CHR-3” value is “partially disrupted”.
Compound `CC[C@H](C)[C@@H]1NC(=O)[C@H](C(C)C)NC(=O)[C@H](Cc2c[nH]cn2)NC(=O)[C@H](Cc2ccc(O)cc2)NC(=O)[C@H](CCC(=O)O)NC(=O)[C@H](CCC(N)=O)NC(=O)[C@H](CC(=O)O)NC(=O)[C@H]([C@@H](C)O)NC(=O)[C@H](C)NC(=O)[C@H](Cc2c[nH]c3ccccc23)NC(=O)[C@H](C(C)C)NC(=O)[C@H](C)NC(=O)[C@H](CO)NC(=O)[C@@H]2CSSC[C@@H]3NC(=O)[C@H](CO)NC(=O)CNC(=O)[C@H]([C@@H](C)O)NC(=O)[C@H](CSSC[C@H](N)C(=O)N[C@@H](CCCCN)C(=O)NCC(=O)N[C@@H](CCCCN)C(=O)NCC(=O)N[C@@H](C)C(=O)N[C@@H](CCCCN)C(=O)N2)NC(=O)[C@H](CSSC[C@@H](C(=O)O)NC(=O)[C@H](CCCCN)NC(=O)CNC(=O)[C@H](CO)NC(=O)[C@H](CCCNC(=N)N)NC3=O)NC1=O` [V-CON-1] showed a Kd at human VEGF-A of more than 4600 nM.
For `CC[C@H](C)[C@@H]1NC(=O)[C@H]([C@@H](C)O)NC(=O)[C@H](Cc2ccccc2)NC(=O)[C@@H]2CCCN2C(=O)[C@H](Cc2ccccc2)NC(=O)[C@H](Cc2c[nH]c3ccccc23)NC(=O)[C@@H]2CCCN2C(=O)[C@H]([C@@H](C)O)NC(=O)[C@H](CCSC)NC(=O)[C@@H](NC(=O)CN)CSSC[C@@H]2NC(=O)CNC(=O)[C@H](C)NC(=O)[C@H](CC(C)C)NC(=O)[C@@H]3CSSC[C@@H](C(=O)NCC(=O)O)NC(=O)[C@H](Cc4ccccc4)NC(=O)CNC(=O)[C@H](CC(N)=O)NC(=O)[C@@H]4CCCN4C(=O)CNC(=O)[C@H](CSSC[C@H](NC(=O)[C@H](CC(N)=O)NC1=O)C(=O)N[C@@H](CCCCN)C(=O)N[C@@H](CCC(N)=O)C(=O)N[C@@H](CC(=O)O)C(=O)N[C@@H](CO)C(=O)N[C@@H](CC(=O)O)C(=O)N3)NC(=O)[C@H](C(C)C)NC2=O` [V-EET-3] (H-GCMTPWFPFTINCKQDSDCLAGCVCGPNGFCG-OH; disulfide 2-23, 13-25, 19-31), the Kd on human VEGF-A (Table S16, SPR against VEGF-A, averaged from at least three independent runs, estimated KD values due to possible non-specific binding, read-out: KD) is more than 1500 nM.
Regarding `CSCC[C@@H]1NC(=O)[C@H](CC(C)C)NC(=O)[C@H](CCCNC(=N)N)NC(=O)[C@H](CO)NC(=O)[C@@H]2CSSC[C@@H]3NC(=O)[C@H](CO)NC(=O)CNC(=O)[C@H]([C@@H](C)O)NC(=O)[C@H](CSSC[C@H](N)C(=O)N[C@@H](CCCCN)C(=O)NCC(=O)N[C@@H](CCCCN)C(=O)NCC(=O)N[C@@H](C)C(=O)N[C@@H](CCCCN)C(=O)N2)NC(=O)[C@H](CSSC[C@@H](C(=O)O)NC(=O)[C@H](CCCCN)NC(=O)CNC(=O)[C@H](CO)NC(=O)[C@H](CCCNC(=N)N)NC3=O)NC(=O)[C@H](CC(=O)O)NC(=O)[C@H](Cc2ccc(O)cc2)NC1=O` [W T CON, reference compound], the Kd on human IgG Fc [1] was more than 20000 nM.

The record behind these values is article PMC10977726 (PLOS ONE, 2024).
